One experiment has as its system P. aeruginosa ATCC27853. In words: MIC determination by microplate dilution, P. aeruginosa human strain. Type of experiment: cell-based, Pseudomonas aeruginosa. The following applies: Pseudomonas aeruginosa, ATCC27853, Gram-negative, Mueller-Hinton medium, 24 h, 37° C. As to the method:
(§1) 1) Preparation of the Preculture
(§2) A negative control (2 mL of sterile culture medium)
(§3) A positive control (1940 μL of culture medium+40 μL of DMSO+20 μL of bacterial suspension) from a thawed biological strain (the biological strains are stored at −80° C. in glycerol).
(§4) The tubes were incubated at 37° C. for 24 hours at 100 rpm.
(§5) The microorganisms were handled under a type L2 laboratory fume cupboard and, before any handling, a UV cycle was programmed and only sterile material was used. […] The chemical compounds to be tested were prepared in a DMSO/methanol mixture (50/50) at a concentration of 5 mg/mL.
(§6) 2) Preparation of the Microplate for the Determination of the Minimum Inhibitory Concentration (MIC)
(§7) After 24 hours of incubation, a measurement of the optical density was taken using a spectrophotometer at 600 nm, collecting 100 μL of the bacterial suspension diluted in 900 μL of the sterile culture medium. This test required the use of a 96-well plate and the required volume of the microbial suspension to be seeded was calculated for an OD corresponding to a value equal to 0.01 in each well. In this plate, the first line corresponded to the negative control (195 μL of sterile culture medium in each well), the second line to the positive control (seeded culture medium supplemented with 2% of DMSO), the third line was loaded twice with bacterial suspension, 8 μL of test product were placed in each well. Thereafter, a 0.5 cascade dilution was performed from this line.
(§8) The first column served as inhibition control. A sterile filter was then placed on the microplate, allowing the passage of gases but not of contaminants. The microplate was incubated at 37° C. under a humid atmosphere for 24 hours.
(§9) NB: The medium used is Mueller-Hinton (MH) medium for bacteria. All the tests were performed in duplicate.
(§10) 4) Reading of the Results
(§11) After incubation, the filter was replaced with a transparent film, and an OD reading was then taken in an iEMS plate spectrophotometer at 620 nm. Calculation of the minimum inhibitory concentration (MIC) was performed.

Another experiment relates to E. coli ATCC28922. In words: MIC determination by microplate dilution, E. coli human strain. Type of experiment: cell-based, Escherichia coli. The following applies: Escherichia coli, ATCC28922, Gram-negative, Mueller-Hinton medium, 24 h, 37° C. As to the method: as §1, §2, §3, §4, §5, §6, §7, §8, §9, §10, §11
A further experiment deals with S. aureus (340). In words: MIC determination by microplate dilution, S. aureus animal strain. The format is cell-based, Staphylococcus aureus. Particulars: Staphylococcus aureus, Gram-positive, Mueller-Hinton medium, 24 h, 37° C. The procedure:
as §1, §2, §3, §4, §5, §6, §7, §8, §9, §10, §11

The test system of the next experiment is CHO-K1 cells. In words: WST1 cytotoxicity test on CHO-K1 cells. Type of experiment: cell-based, Chinese hamster. The following applies: Cricetulus griseus, CHO-K1, 24 h, read-out: IC50 (μg/mL) CHO. The procedure:
Test WST1 was used to measure the cytotoxic activity of the products. This is a colorimetric test which makes it possible to measure the viability and the degree of cell proliferation. It is based on cleavage of the colorless tetrazolium salts WST-1 (4-[3-(4-iodophenyl)-2-(4-nitrophenyl)-2H-5-tetrazolio]-1,3-benzene disulfonate) with mitochondrial dehydrogenases to the yellow-colored formazan derivative, which may be quantified by spectrophotometry at 420-480 nm.
The WST1 test was performed on Chinese hamster ovary cells. The CHO-K1 cells (ATCC, USA) are kept in culture on McCoy's 5A medium supplemented with 10% fetal calf serum, 2 mM of L-glutamine and a mixture of penicillin-streptomycin (100 U/ml: 10 μg/mL). The culture is incubated at 37° C. under an atmosphere enriched in CO2 (5%), and subcultured every two days.
The cells are transferred into 96-well plates (25 000 cells/mL) in whole McCoy's 5A medium, and maintained for 24 hours at 37° C. under a humid atmosphere enriched in CO2 (5%). Increasing concentrations of test products are added to the wells in double tests and 8 growth controls containing the cells in the medium alone are included in each series of tests. After 24 hours at 37° C. (5% CO2), the culture medium is removed, the cells are rinsed in phosphate buffer (PBS) and 50 μL of PBS containing 10% of reagent WST1 are added to each well. After 20 minutes of incubation at 37° C., the results are read by spectrophotometry at 450 nm.
The results are expressed in dose-response relationships, modeled by nonlinear regression analysis using the TableCurve software. The 50% inhibitory concentration (IC50) represents the concentration of product that is capable of reducing the cell viability by 50%.

The test system of experiment [1] is P. aeruginosa (1051575). Put plainly: Potentiation of the doxycycline activity at 2 μg/mL. Type of experiment: cell-based, Pseudomonas aeruginosa. Particulars: in combination with doxycycline 2 μg/mL; 24 h, 37°.
The next experiment has as its system S. intermedius (1051997). In words: MIC determination by microplate dilution, S. intermedius animal strain. Type of experiment: cell-based, Staphylococcus intermedius. Particulars: Staphylococcus intermedius, Gram-positive, Mueller-Hinton medium, 24 h, 37° C. The procedure:
as §1, §2, §3, §4, §5, §6, §7, §8, §9, §10, §11

For a further experiment, the system named is E. coli (1956). In words: MIC determination by microplate dilution, E. coli animal strain. Type of experiment: cell-based, Escherichia coli. The following applies: Escherichia coli, Gram-negative, Mueller-Hinton medium, 24 h, 37° C. As to the method: as §1, §2, §3, §4, §5, §6, §7, §8, §9, §10, §11
For the next experiment, the system named is S. aureus ATCC25923. In words: MIC determination by microplate dilution, S. aureus human strain. Type of experiment: cell-based, Staphylococcus aureus. The following applies: Staphylococcus aureus, ATCC25923, Gram-positive, Mueller-Hinton medium, 24 h, 37° C. As to the method: as §1, §2, §3, §4, §5, §6, §7, §8, §9, §10, §11
The test system of experiment [2] is P. aeruginosa (1051575). In words: MIC determination by microplate dilution, P. aeruginosa animal strain. The format is cell-based, Pseudomonas aeruginosa. Particulars: Pseudomonas aeruginosa, Gram-negative, Mueller-Hinton medium, 24 h, 37° C. The procedure: as §1, §2, §3, §4, §5, §6, §7, §8, §9, §10, §11
The next experiment concerns E. faecalis ATCC29212. Put plainly: MIC determination by microplate dilution, E. faecalis human strain. Type of experiment: cell-based, Enterococcus faecalis. Particulars: Enterococcus faecalis, ATCC29212, Gram-positive, Mueller-Hinton medium, 24 h, 37° C. The procedure:
as §1, §2, §3, §4, §5, §6, §7, §8, §9, §10, §11

≈ marks a conversion by molar mass, not a printed value.

As a reminder, the MIC is the least concentration at which growth counts as inhibited.

With `CC(C)OC(=O)CC[C@@H](C)[C@H]1CCC2C3CCC4C[C@@H](NCCCNCCCNCCCN)CC[C@]4(C)C3C[C@H](O)[C@@]21C` (stereo partly drawn) [Compound (1), isopropyl 3β-norsperminodeoxycholate], the MIC in the experiment with P. aeruginosa ATCC27853 worked out at 8 µg/mL (≈ 13.2 µM); with E. coli ATCC28922 it was 8 µg/mL (≈ 13.2 µM); against S. aureus (340), 2 µg/mL (≈ 3.31 µM); against S. intermedius (1051997), 2 µg/mL (≈ 3.31 µM); with E. coli (1956), 10 µg/mL (≈ 16.5 µM); in the experiment with S. aureus ATCC25923, 4 µg/mL (≈ 6.61 µM). The MIC was 2 µg/mL (≈ 3.31 µM) in the experiment with P. aeruginosa (1051575) [2] and 8 µg/mL (≈ 13.2 µM) with E. faecalis ATCC29212. Also, in the experiment with CHO-K1 cells, the IC50 is 50 µg/mL (≈ 82.6 µM). For the same compound, in the experiment with P. aeruginosa (1051575) [1], the “MIC - P. aeruginosa (1051575): content of compound of formula (I) to restore the doxycycline activity (at 2 μg/mL)” value (shortened to “MIC - P. aeruginosa (1051575): content”) came to 2 µg/mL.

With `CC(C)OC(=O)CC[C@@H](C)[C@H]1CCC2C3CCC4C[C@@H](NCCCNCCCN)CC[C@]4(C)C3C[C@H](O)[C@@]21C` (stereo partly drawn) [Compound (2), isopropyl 3β-norspermidinodeoxycholate], the MIC is 14 µg/mL (≈ 25.6 µM) in the experiment with P. aeruginosa ATCC27853; 14 µg/mL (≈ 25.6 µM) in the experiment with E. coli ATCC28922; 3 µg/mL (≈ 5.48 µM) against S. aureus (340); 3 µg/mL (≈ 5.48 µM) in the experiment with S. intermedius (1051997); 28 µg/mL (≈ 51.1 µM) against E. coli (1956); 3 µg/mL (≈ 5.48 µM) with S. aureus ATCC25923. Moreover, the MIC against P. aeruginosa (1051575) [2] and in the experiment with E. faecalis ATCC29212 was 14 µg/mL (≈ 25.6 µM) throughout. Further, the IC50 in the experiment with CHO-K1 cells turned out to be 60 µg/mL (≈ 110 µM). In addition, in the experiment on P. aeruginosa (1051575) [1], the “MIC - P. aeruginosa (1051575): content” value was 3 µg/mL.

With `COC(=O)CC[C@@H](C)[C@H]1CCC2C3CCC4C[C@@H](NCCCNCCCNCCCN)CC[C@]4(C)C3C[C@H](O)[C@@]21C` (stereo partly drawn) [Compound (3), methyl 3β-norsperminodeoxycholate], the MIC against P. aeruginosa ATCC27853 was found to be 2 µg/mL (≈ 3.47 µM); in the experiment on E. coli ATCC28922, 29 µg/mL (≈ 50.3 µM); against S. aureus (340), 4 µg/mL (≈ 6.93 µM); against S. intermedius (1051997), 1 µg/mL (≈ 1.73 µM); against E. coli (1956), 14 µg/mL (≈ 24.3 µM); against S. aureus ATCC25923 it was 2 µg/mL (≈ 3.47 µM). In addition, the MIC in the experiment with P. aeruginosa (1051575) [2] and against E. faecalis ATCC29212 was 2 µg/mL (≈ 3.47 µM) in each case. Besides, the IC50 in the experiment on CHO-K1 cells came out at 6 µg/mL (≈ 10.4 µM). The “MIC - P. aeruginosa (1051575): content” value with P. aeruginosa (1051575) [1] worked out at 4 µg/mL.

On to `CC(C)OC(=O)CC[C@@H](C)[C@H]1CCC2C3C(C[C@H](O)[C@@]21C)[C@@]1(C)CC[C@H](NCCCNCCCNCCCN)CC1C[C@H]3O` (stereo partly drawn) [Compound (6), isopropyl 3β-norsperminocholate], for which the MIC against P. aeruginosa ATCC27853 was found to be 30 µg/mL (≈ 48.3 µM); in the experiment on E. coli ATCC28922, 30 µg/mL (≈ 48.3 µM); with S. aureus (340), 8 µg/mL (≈ 12.9 µM); against S. intermedius (1051997), 16 µg/mL (≈ 25.8 µM); against E. coli (1956), 30 µg/mL (≈ 48.3 µM); against S. aureus ATCC25923 it was 8 µg/mL (≈ 12.9 µM). Further, the MIC against P. aeruginosa (1051575) [2] was 30 µg/mL (≈ 48.3 µM); in the experiment with E. faecalis ATCC29212 it was > 60 µg/mL. For the same compound, the IC50 in the experiment with CHO-K1 cells stood at 90 µg/mL (≈ 145 µM). Further, the “MIC - P. aeruginosa (1051575): content” value in the experiment on P. aeruginosa (1051575) [1] came out at 4 µg/mL.

As for `COC(=O)CC[C@@H](C)[C@H]1CCC2C3C(CC[C@@]21C)[C@@]1(C)CC[C@H](NCCCNCCCNCCCN)CC1C[C@@H]3O` (stereo partly drawn) [Compound (12), methyl 3β-norsperminoursodeoxycholate], the MIC with P. aeruginosa ATCC27853 worked out at 30 µg/mL (≈ 52 µM); against E. coli ATCC28922 it was 4 µg/mL (≈ 6.93 µM); in the experiment with S. aureus (340), 4 µg/mL (≈ 6.93 µM); against S. intermedius (1051997), 1 µg/mL (≈ 1.73 µM); against E. coli (1956), 60 µg/mL (≈ 104 µM); in the experiment on S. aureus ATCC25923, 7 µg/mL (≈ 12.1 µM). The figures for the MIC against P. aeruginosa (1051575) [2] and against E. faecalis ATCC29212 were 7 µg/mL (≈ 12.1 µM) and 30 µg/mL (≈ 52 µM), respectively. Besides, the IC50 in the experiment on CHO-K1 cells is 20 µg/mL (≈ 34.7 µM). In addition, the “MIC - P. aeruginosa (1051575): content” value in the experiment on P. aeruginosa (1051575) [1] was found to be 2 µg/mL.

The values are drawn from patent US20190255073A1, “ESTERS OF 3-POLYAMINE DERIVATIVES OF BILE ACIDS FOR THE TREATMENT OF INFECTIONS” (VIRBAC, priority 2016, published 2019).
